Results from a compilation of properties of binary mixtures (doi:10.1021/je901058s).

Experiment: xn = mol fraction of the nth substance listed
Conditions: 101 kPa

CCCCCCCCn1cc[n+](C)c1.O=[N+]([O-])[O-] + CCCCO
viscosity [mPa·s]
Conditions | 283.15 K | 288.15 K | 293.15 K | 298.15 K | 303.15 K | 308.15 K | 313.15 K | 318.15 K | 323.15 K | 328.15 K
x2 = 0.168 | – | 530 | 380 | 277 | 207 | 158 | – | 97.4 | 73.2 | 48.9
x2 = 0.261 | 440 | 311 | 229 | 172 | 132 | 103 | 78.5 | 63.4 | 51.6 | 35.5
x2 = 0.358 | 241 | 179 | – | 105 | 80.6 | – | – | – | 35.7 | 25.5
x2 = 0.458 | 126 | 98.8 | 74.2 | – | – | 39.3 | 32.6 | 27.3 | – | –
x2 = 0.57 | 59.4 | 47.4 | – | – | 26.4 | 22.29 | 18.98 | 16.3 | – | 10.88
x2 = 0.676 | 29.9 | 24.7 | – | 17.43 | – | – | 11.15 | 9.75 | – | 6.84
x2 = 0.754 | 18.67 | 15.69 | 13.36 | 11.44 | 9.92 | 8.74 | 7.63 | 6.76 | 5.98 | 4.76
x2 = 0.848 | 10.45 | 9.03 | – | – | 5.92 | 5.15 | 4.56 | 4.03 | – | 2.93

CCCCCCCCn1cc[n+](C)c1.O=[N+]([O-])[O-] + CCCO
viscosity [mPa·s]
Conditions | 283.15 K | 288.15 K | 293.15 K | 298.15 K | 303.15 K | 308.15 K | 313.15 K | 318.15 K | 323.15 K | 328.15 K
x2 = 0.107 | 1091 | 730 | 510 | 365 | 267 | 201 | 153 | 120 | 95.4 | –
x2 = 0.258 | 490 | – | 258 | 191 | – | 113 | 86.9 | – | 53.4 | 36.5
x2 = 0.364 | 218 | 164 | 127 | 99.7 | – | 63 | 51.1 | 42.1 | 35 | 25
x2 = 0.47 | 114 | 85.8 | – | 60 | 48.5 | 39.7 | – | 27.6 | 23.44 | 17.34
x2 = 0.556 | 65.4 | – | – | 34.4 | 28.6 | – | 20.38 | 17.44 | 15.08 | –
x2 = 0.671 | 28.8 | 23.8 | – | 16.84 | 14.41 | 12.45 | – | – | 8.41 | 6.55
x2 = 0.756 | 16.16 | 13.66 | 11.67 | 10.07 | 8.77 | 7.63 | 6.75 | 5.93 | 5.21 | 4.2
x2 = 0.866 | 7.84 | 6.8 | 5.85 | – | 4.48 | 3.94 | 3.52 | 3.14 | 2.82 | 2.31

CCCCCCCCn1cc[n+](C)c1.O=[N+]([O-])[O-] + CCO
viscosity [mPa·s]
Conditions | 283.15 K | 288.15 K | 293.15 K | 298.15 K | 303.15 K | 308.15 K | 313.15 K | 318.15 K | 323.15 K | 328.15 K
x2 = 0.128 | 970 | 660 | 460 | 333 | 246 | 185 | 143 | – | 81.4 | –
x2 = 0.266 | 380 | 266 | 198 | 150 | 116 | 89.1 | 68.9 | 55.9 | 45.9 | 32
x2 = 0.357 | 216 | – | 124 | 97 | 73.4 | 58.4 | 48.3 | – | 33.3 | –
x2 = 0.455 | 102 | 76.2 | – | 47.5 | 38.3 | 31.2 | 25.8 | – | 18.59 | 14.08
x2 = 0.554 | – | 38.6 | 31.5 | 26.1 | – | 18.4 | 15.71 | 13.53 | 11.78 | –
x2 = 0.662 | 24.8 | 20.62 | 17.19 | 14.52 | 12.44 | 10.83 | 9.55 | 8.69 | 7.83 | 6.2
x2 = 0.767 | 11.64 | 9.86 | – | – | – | 5.72 | – | 4.46 | 3.99 | 3.27
x2 = 0.868 | 5.09 | – | 3.97 | 3.49 | 3.13 | 2.8 | 2.53 | 2.3 | 2.1 | 1.77
